#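 48-hour exposure; five concentrations; linearly interpolated endpoints. GI50 marks 50% less growth. TGI: total growth inhibition.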
# Tests used:
# Assay in all cases: NCI tumour cell line growth inhibition, 48 h
# CAKI-1 renal = test system: CAKI-1 renal
# COLO 205 colon = test system: COLO 205 colon
# MALME-3M melanoma = test system: MALME-3M melanoma
# MDA-N = test system: MDA-N
# MOLT-4 leukemia = test system: MOLT-4 leukemia
# PC-3 prostate = test system: PC-3 prostate
# SK-MEL-28 melanoma = test system: SK-MEL-28 melanoma
# SN12C renal = test system: SN12C renal
# UACC-257 melanoma = test system: UACC-257 melanoma
# HS 578T breast = test system: HS 578T breast
Compound,TGI (CAKI-1 renal),TGI (COLO 205 colon),TGI (MALME-3M melanoma),TGI (MDA-N),TGI (MOLT-4 leukemia),TGI (PC-3 prostate),TGI (SK-MEL-28 melanoma),TGI (SN12C renal),TGI (UACC-257 melanoma),TGI (HS 578T breast),GI50 (CAKI-1 renal),GI50 (COLO 205 colon),GI50 (HS 578T breast),GI50 (MALME-3M melanoma),GI50 (MOLT-4 leukemia),GI50 (PC-3 prostate),GI50 (SK-MEL-28 melanoma),GI50 (SN12C renal),GI50 (UACC-257 melanoma)
CSc1ccc2c(cc1=O)[C@@H](NC(C)=O)CCc1cc(O)c(O)c(O)c1-2,> 100 µM,> 100 µM,> 100 µM,61.1 µM,> 100 µM,> 100 µM,> 100 µM,> 100 µM,> 100 µM,,,,,,,,,,
C/C(=N/NC(=S)Nc1ccccc1Cl)c1ccccn1,19.7 µM,2.54 µM,13 µM,19.7 µM,3.62 µM,27.3 µM,23 µM,8.4 µM,1.07 µM,40.2 µM,,,,,,,,,
CC1=C2C(O)C(C(C)C(=O)NCC(C)C)CCC2(C)C=CC1=O (stereo unspecified),> 100 µM,> 100 µM,,,> 100 µM,,> 100 µM,> 100 µM,> 100 µM,,,,,,,,,,
C=C[C@@H]1OC(=O)O[C@H]1CO,,> 100 µM,> 100 µM,> 100 µM,> 100 µM,> 100 µM,> 100 µM,> 100 µM,> 100 µM,> 100 µM,,,,,,,,,
CC(C(=O)N1C(=O)N(C(=O)C(C)C(O)c2ccccc2)C(c2ccccc2)C1c1ccccc1)C(O)c1ccccc1 (stereo unspecified),,28.1 µM,32.3 µM,,11.9 µM,,40.2 µM,37.3 µM,,95.1 µM,,,,,,,,,
O=c1c(O)c(-c2ccc(O)cc2O)oc2cc(O)cc(O)c12,> 100 µM,> 100 µM,> 100 µM,> 100 µM,,> 100 µM,> 100 µM,> 100 µM,> 100 µM,> 100 µM,,,,,,,,,
CCCCCCCCCOC(=O)c1cnc(Cl)cn1,31.8 µM,51.1 µM,39.4 µM,,> 100 µM,24 µM,52.7 µM,36.9 µM,45.6 µM,68 µM,,,,,,,,,
COc1c2c(c(OC)c3c1c(=O)c1ccccc1n3C)OCO2,> 100 µM,53.9 µM,,,> 31.6 µM,> 100 µM,> 100 µM,> 100 µM,> 100 µM,> 100 µM,,,,,,,,,
CCCCCC(CN1CCOCC1)C(=O)/C=C/c1ccccc1 (stereo unspecified),,13.9 µM,6.42 µM,,4.61 µM,,19.1 µM,10.5 µM,7.83 µM,,,,,,,,,,
CN(C1=NCCO1)c1cccc2ccccc12,> 10 µM,> 10 µM,> 10 µM,> 10 µM,> 10 µM,> 10 µM,> 10 µM,> 10 µM,,> 10 µM,,,,,,,,,
O=C1C=CC(=O)c2c1ccc1c3ccccc3n(-c3ccccn3)c21,,30.2 µM,32.7 µM,,84.5 µM,,> 100 µM,> 100 µM,37.3 µM,,,,,,,,,,
CCOC(=O)CN1CCNCCN(CC(=O)OCC)CCNCC1,> 100 µM,> 100 µM,,> 100 µM,> 100 µM,> 100 µM,> 100 µM,> 100 µM,> 100 µM,> 100 µM,,,,,,,,,
CCOP(=O)(OCC)C(NC(=O)OCC(Cl)(Cl)Cl)n1nnc(C(=O)OC)c1C(=O)OC (stereo unspecified),> 100 µM,> 100 µM,> 100 µM,> 100 µM,> 100 µM,> 100 µM,> 100 µM,,> 100 µM,> 100 µM,,,,,,,,,
CCc1ccc(-c2nnc(COc3ccc(-c4nc5ccc(C)cc5[nH]4)cc3OC)o2)cc1,4.92 µM,96 µM,3.11 µM,,> 100 µM,> 100 µM,6.66 µM,5.52 µM,16.2 µM,5.01 µM,2.07 µM,8.39 µM,2.07 µM,1.56 µM,3.26 µM,2.96 µM,2.36 µM,2.2 µM,3.57 µM
NCc1ccc(-c2ccc(-c3ccc(-c4ccc(CN)s4)s3)s2)s1,> 100 µM,> 100 µM,> 100 µM,> 100 µM,> 100 µM,> 100 µM,> 100 µM,> 100 µM,> 100 µM,,,,,,,,,,
CCOC(=O)C1C(=O)CC(O)(OCC)C(C(=O)OCC)C1c1ccc(OC)cc1 (stereo unspecified),> 100 µM,> 100 µM,> 100 µM,> 100 µM,> 100 µM,> 100 µM,> 100 µM,> 100 µM,> 100 µM,,,,,,,,,,
COc1c(CC=C(C)C)c(O)c(C(CC(C)C)c2c(O)c(C(C)=O)c(O)c3c2OC(C(C)(C)O)C3)c(O)c1C(C)=O (stereo unspecified),> 12.5 µM,> 12.5 µM,> 12.5 µM,> 12.5 µM,> 12.5 µM,,> 12.5 µM,> 12.5 µM,9.32 µM,> 12.5 µM,,,,,,,,,
C[C@]12CC[C@@H]3c4ccc(O)cc4CC[C@H]3[C@@H]1C/C(=C\c1ccc([N+](=O)[O-])cc1)C2=O,> 100 µM,> 100 µM,> 100 µM,> 100 µM,> 100 µM,> 100 µM,> 100 µM,> 100 µM,> 100 µM,,,,,,,,,,
CC(=O)ON(OC(C)=O)c1ccc(C)cc1,> 100 µM,> 100 µM,> 100 µM,> 100 µM,> 100 µM,> 100 µM,> 100 µM,,> 100 µM,> 100 µM,,,,,,,,,
COC(CN(C)C(=O)C(C)NC(=O)c1ccccc1)OC (stereo unspecified),> 100 µM,> 100 µM,> 100 µM,> 100 µM,> 100 µM,> 100 µM,,> 100 µM,> 100 µM,> 100 µM,,,,,,,,,
Cc1c(N2C(=O)/C(=C/C=C/c3ccccc3)N=C2c2ccccc2)c(=O)n(-c2ccccc2)n1C,> 100 µM,30.3 µM,92.2 µM,38.3 µM,78.8 µM,76.9 µM,,69 µM,42.1 µM,,,,,,,,,,
CC1C(c2ccc(F)cc2)c2cc3c(cc2OC1N1CCCC1)OCO3 (stereo unspecified),58.4 µM,> 100 µM,,> 100 µM,,> 100 µM,> 100 µM,> 100 µM,> 100 µM,54.8 µM,,,,,,,,,
Cc1cc(-c2ccc(C(=O)O)[nH]2)on1,> 100 µM,> 100 µM,> 100 µM,23.7 µM,> 100 µM,> 100 µM,> 100 µM,,> 100 µM,> 100 µM,,,,,,,,,
CC/C(=N\NC(=O)c1cccnc1)c1ccc2c(c1)OCCO2,> 100 µM,> 100 µM,91.5 µM,> 100 µM,> 100 µM,> 100 µM,> 100 µM,> 100 µM,,93.7 µM,,,,,,,,,

# — PubChem BioAssay (NCI)
